Experiments:
Type in all cases: cell-based
[1] = molecular target: T1, EGFR (Homo sapiens (Human), UniProt P00533); assay: A549 cell lysis and immunoassay, phospho-EGFR (Y1068) inhibition; parameters: key: X: EGFR bound and autophosphoration of EGFR inhibited in cells; conditions: A549 cells
Experimental: (§1) A549 cells (ATCC) were cultured in Dulbecco's Modified Eagle's Medium (DMEM) (Wisent) supplemented with 10% FBS and 1% penicillin/streptomycin. Cells were seeded in 6-well plates at 530,000 cells/well and incubated at 37° C., 5% CO2 for 16 hours. Cells were starved in DMEM containing 1% FBS for 4 hours before they were treated with the indicated concentrations of compound or DMSO alone and incubated at 37° C., 5% CO2 for 24 hours. Prior to cell harvest and lysis, 50 ng/ml human epidermal growth factor (hEGF) (Sigma) was added to the cells and incubated at 37° C., 5% CO2 for 10 minutes. Conditioned media was discarded, and adherent cells were washed with PBS before they were scraped on ice. Cell suspensions were centrifugated at 2,000 RPM for 5 minutes at 4° C. and supernatants were discarded. Cell pellets were resuspended with 1× RIPA buffer (Millipore) and incubated on ice for 15 minutes. Protein lysates were extracted by centrifugating at 20,000 RPM for 20 minutes at 4° C. Proteins were separated and total EGFR protein levels were quantified by Simple Western Immunoassay (ProteinSimple) using the Protein Normalization Assay Module for Jess according to the manufacturer's protocol, using a protein concentration of 0.125 μg/μl and an antibody targeting EGFR (clone #EP38Y, Abcam) diluted to 1:400. Phosphorylated EGFR protein levels were quantified with the same assay using a protein concentration of 1 μg/μl and an antibody targeting pEGFR (Y1068) (Cell Signalling) diluted to 1:25. EGFR and phosphorylated EGFR levels were normalized to the Jess Protein Normalization Reagent loading control and subsequently to the DMSO control.

[2] = molecular target: T1, EGFR; assay: A549 cell lysis and immunoassay, total EGFR degradation; parameters: key: Y: EGFR bound in cells and EGFR degradation occurred; conditions: A549 cells
Experimental: as §1

[3] = molecular target: BTK (Homo sapiens (Human), UniProt Q06187); assay: Ramos RA1 cell lysis and immunoassay, total BTK degradation; parameters: key to % BTK degradation (RAMOS, 24 h): Y: BTK bound in cells and BTK degradation occurred; concentration or dose not given beside the values; key to % BTK degradation (RAMOS, 10 uM, 24 h): Y: EGFR bound in cells and EGFR degradation occurred; conditions: RAMOS cells
Experimental: Ramos RA 1 cells (ATCC) were cultured in RPMI-1640 media (Wisent) supplemented with 10% heat-inactivated FBS and 1% penicillin/streptomycin. Cells were seeded in 6-well plates at 1.71×10^6 cells/well and incubated at 37° C., 5% CO2 for 16 hours. Cells were treated with compound at the indicated concentrations or DMSO alone and incubated at 37° C., 5% CO2 for 24 hours. Cell suspensions were centrifugated at 1,400-1,600 RPM for 5 minutes at room temperature and supernatants were discarded. Cell pellets were resuspended with 1× RIPA buffer (Millipore) and incubated on ice for 15 minutes. Protein lysates were extracted by centrifugating at 20,000 RPM for 20 minutes at 4° C. Proteins were separated and total BTK protein levels were quantified by Simple Western Immunoassay (ProteinSimple) using the 12-230 kDa Jess Separation Module according to the manufacturer's protocol, using a protein concentration of 0.25 μg/μl and antibodies targeting BTK (clone #D3H5, Cell Signalling) and β-Actin (clone #AC-15, Santa Cruz) diluted to 1:400 and 1:10, respectively, where the latter was used as a loading control. An equal ratio of rabbit and mouse HRP-conjugated secondary antibodies was used for detection. BTK protein levels were quantified relative to S-Actin loading levels and subsequently normalized to the DMSO control. Phosphorylated BTK levels were quantified using the Protein Normalization Assay Module for Jess (ProteinSimple) according to the manufacturer's protocol, using a protein concentration of 1.5 μg/μl and an antibody targeting pBTK (Y223) (Cell Signalling) diluted to 1:50. Phosphorylated BTK levels were quantified relative to the Protein Normalization Reagent and subsequently normalized to the DMSO control.

[4] = compound concentration 10, 24 h

Chain of BTK (Q06187 whole entry): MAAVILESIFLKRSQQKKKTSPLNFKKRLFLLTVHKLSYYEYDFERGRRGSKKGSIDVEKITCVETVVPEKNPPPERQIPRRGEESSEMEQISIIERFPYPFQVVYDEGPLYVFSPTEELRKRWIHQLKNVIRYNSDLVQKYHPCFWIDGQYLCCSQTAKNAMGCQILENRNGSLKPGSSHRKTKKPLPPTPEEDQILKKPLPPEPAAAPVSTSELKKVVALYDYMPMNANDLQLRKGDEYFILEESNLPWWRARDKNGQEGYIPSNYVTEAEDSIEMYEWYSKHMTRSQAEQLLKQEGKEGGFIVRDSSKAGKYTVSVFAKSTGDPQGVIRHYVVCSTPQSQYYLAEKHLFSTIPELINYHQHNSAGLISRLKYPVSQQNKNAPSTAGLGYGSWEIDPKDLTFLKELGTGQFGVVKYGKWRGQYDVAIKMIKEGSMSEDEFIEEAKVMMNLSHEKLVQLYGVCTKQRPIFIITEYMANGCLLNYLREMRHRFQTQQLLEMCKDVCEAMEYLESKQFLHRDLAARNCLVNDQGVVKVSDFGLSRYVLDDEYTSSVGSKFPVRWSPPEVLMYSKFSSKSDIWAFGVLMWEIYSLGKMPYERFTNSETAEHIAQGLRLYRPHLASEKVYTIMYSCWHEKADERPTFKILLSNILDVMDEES
T1 sequence (P00533 25-1210): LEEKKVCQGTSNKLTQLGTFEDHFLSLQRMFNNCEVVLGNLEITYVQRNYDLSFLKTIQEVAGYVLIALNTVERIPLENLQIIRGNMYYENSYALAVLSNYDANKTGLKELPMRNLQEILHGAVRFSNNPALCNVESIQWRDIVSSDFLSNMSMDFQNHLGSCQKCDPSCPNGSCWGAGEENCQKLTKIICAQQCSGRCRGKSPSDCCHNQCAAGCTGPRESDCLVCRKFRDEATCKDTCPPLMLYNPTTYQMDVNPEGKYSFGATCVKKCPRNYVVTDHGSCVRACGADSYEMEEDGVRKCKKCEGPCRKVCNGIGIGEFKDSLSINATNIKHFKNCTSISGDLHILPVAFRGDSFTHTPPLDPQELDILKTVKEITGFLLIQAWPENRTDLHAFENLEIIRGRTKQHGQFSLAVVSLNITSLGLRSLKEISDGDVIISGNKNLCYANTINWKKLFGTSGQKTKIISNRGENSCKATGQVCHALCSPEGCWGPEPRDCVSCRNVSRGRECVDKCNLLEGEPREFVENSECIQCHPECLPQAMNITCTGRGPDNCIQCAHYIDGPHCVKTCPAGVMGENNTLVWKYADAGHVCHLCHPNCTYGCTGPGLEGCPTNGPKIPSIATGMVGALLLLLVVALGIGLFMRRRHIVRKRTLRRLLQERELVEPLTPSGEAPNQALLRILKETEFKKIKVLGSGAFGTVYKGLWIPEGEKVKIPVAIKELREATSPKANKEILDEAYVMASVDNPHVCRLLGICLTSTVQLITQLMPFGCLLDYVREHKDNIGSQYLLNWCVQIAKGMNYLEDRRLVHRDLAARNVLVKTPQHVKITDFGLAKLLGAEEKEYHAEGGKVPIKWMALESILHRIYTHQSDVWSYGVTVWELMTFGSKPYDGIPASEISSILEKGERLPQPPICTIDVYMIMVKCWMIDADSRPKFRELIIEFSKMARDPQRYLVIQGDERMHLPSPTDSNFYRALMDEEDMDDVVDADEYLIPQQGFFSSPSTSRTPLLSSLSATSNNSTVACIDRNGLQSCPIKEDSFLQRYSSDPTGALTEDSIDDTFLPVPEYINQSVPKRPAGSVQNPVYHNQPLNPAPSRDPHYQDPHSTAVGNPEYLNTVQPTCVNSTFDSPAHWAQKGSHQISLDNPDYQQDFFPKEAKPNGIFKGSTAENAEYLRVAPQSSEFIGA

SMILES | pEGFR inhibition (A549, 1 μM, 24 h) [1] | EGFR degradation (A549, 1 μM, 24 h) [2] | EGFR degradation (A549, compound concentration, 24 h) [2, 4] | % BTK degradation (RAMOS, 24 h) [3] | pEGFR inhibition (A549, compound concentration, 24 h) ([1]; compound concentration 10 μM) | EGFR degradation (A549, compound concentration, 24 h) ([2]; compound concentration 5, 24 h) | % BTK degradation (RAMOS, 10 uM, 24 h) ([3]; 10 uM) | pEGFR inhibition (A549, compound concentration, 24 h) ([1]; compound concentration 5 μM)
COCCOc1ccc(Nc2ncc(F)c(Nc3cccc(NC(=O)c4c(F)c(F)c(F)c(F)c4[S@+](C)[O-])c3)n2)cc1 (stereo in doubt) [Compound I-62, 2,3,4,5-tetrafluoro-N-(3-((5-fluoro-2-((4-(2-methoxyethoxy)phenyl)amino)pyrimidin-4-yl)amino)phenyl)-6-(methylsulfinyl)benzamide] | X | Y | Y | Y | – | – | – | –
COCCOc1ccc(Nc2ncc(F)c(Nc3cccc(NC(=O)c4c(F)c(F)c(F)c(F)c4S(=O)(=O)N(C)C)c3)n2)cc1 [Compound I-59, 2-(N,N-dimethylsulfamoyl)-3,4,5,6-tetrafluoro-N-(3-((5-fluoro-2-((4-(2-methoxyethoxy)phenyl)amino)pyrimidin-4-yl)amino)phenyl)benzamide] | X | Y | – | Y | X | Y | – | –
COCCOc1ccc(Nc2ncc(F)c(Nc3cccc(Nc4c(F)c(F)c(F)c(F)c4[S@+](C)[O-])c3)n2)cc1 (stereo in doubt) [Compound I-63, 5-fluoro-N^2-(4-(2-methoxyethoxy)phenyl)-N^4-(3-((2,3,4,5-tetrafluoro-6-(methylsulfinyl)phenyl)amino)phenyl)pyrimidine-2,4-diamine] | X | Y | Y | Y | X | – | Y | –
COCCOc1ccc(Nc2ncc(F)c(Nc3cccc(Nc4c(F)c(F)c(F)c(F)c4S(C)(=O)=O)c3)n2)cc1 [Compound I-64, 5-fluoro-N^2-(4-(2-methoxyethoxy)phenyl)-N^4-(3-((2,3,4,5-tetrafluoro-6-(methylsulfonyl)phenyl)amino)phenyl)pyrimidine-2,4-diamine] | X | Y | Y | Y | – | – | – | –
CS(=O)(=O)c1c(F)c(F)c(F)c(F)c1C(=O)Nc1cc2c(Nc3ccc(F)c(Cl)c3)ncnc2cc1O[C@H]1CCOC1 [Compound I-5, (S)—N-(4-((3-chloro-4-fluorophenyl)amino)-7-((tetrahydrofuran-3-yl)oxy)quinazolin-6-yl)-2,3,4,5-tetrafluoro-6-(methylsulfonyl)benzamide] | X | Y | Y | Y | X | – | – | –
CS(=O)(=O)c1c(F)c(F)c(F)c(F)c1C(=O)NCCCn1nc(-c2ccc(Oc3ccccc3)cc2)c2c(N)ncnc21 [Compound I-39, N-(3-(4-amino-3-(4-phenoxyphenyl)-1H-pyrazolo[3,4-d]pyrimidin-1-yl)propyl)-2,3,4,5-tetrafluoro-6-(methylsulfonyl)benzamide] | X | Y | – | Y | – | Y | – | X
CN(C)S(=O)(=O)c1c(F)c(F)c(F)c(F)c1C(=O)NCCNc1ncnc2[nH]ccc12 [Compound I-47, N-(2-((7H-pyrrolo[2,3-d]pyrimidin-4-yl)amino)ethyl)-2-(N,N-dimethylsulfamoyl)-3,4,5,6-tetrafluorobenzamide] | X | Y | Y | Y | – | – | – | –
C[S+]([O-])c1c(F)c(F)c(F)c(F)c1C(=O)N1CCC[C@@H](n2nc(-c3ccc(Oc4ccccc4)cc3)c3c(N)ncnc32)C1 (stereo partly drawn) [Compound I-36, ((R)-3-(4-amino-3-(4-phenoxyphenyl)-1H-pyrazolo[3,4-d]pyrimidin-1-yl)piperidin-1-yl)(2,3,4,5-tetrafluoro-6-(methylsulfinyl)phenyl)methanone] | X | Y | Y | Y | X | – | – | –
Nc1ncnc2c1c(-c1ccc(Oc3ccccc3)cc1)nn2CCNC(=O)c1c(F)c(F)c(F)c(F)c1S(N)(=O)=O [Compound I-42, N-(2-(4-amino-3-(4-phenoxyphenyl)-1H-pyrazolo[3,4-d]pyrimidin-1-yl)ethyl)-2,3,4,5-tetrafluoro-6-sulfamoylbenzamide] | X | Y | Y | Y | X | – | – | –
NS(=O)(=O)c1c(F)c(F)c(F)c(F)c1C(=O)NCCNc1ncnc2[nH]ccc12 [Compound I-48] | X | Y | Y | Y | X | – | – | –
COCCOc1ccc(Nc2ncc(F)c(Nc3cccc(NC(=O)c4c(F)c(F)c(F)c(F)c4S(C)(=O)=O)c3)n2)cc1 [Compound I-61, 2,3,4,5-tetrafluoro-N-(3-((5-fluoro-2-((4-(2-methoxyethoxy)phenyl)amino)pyrimidin-4-yl)amino)phenyl)-6-(methylsulfonyl)benzamide] | X | Y | Y | – | – | – | – | –
CN(C)S(=O)(=O)c1c(F)c(F)c(F)c(F)c1C(=O)NCCCn1nc(-c2ccc(Oc3ccccc3)cc2)c2c(N)ncnc21 [Compound I-41, N-(3-(4-amino-3-(4-phenoxyphenyl)-1H-pyrazolo[3,4-d]pyrimidin-1-yl)propyl)-2-(N,N-dimethylsulfamoyl)-3,4,5,6-tetrafluorobenzamide] | X | Y | – | Y | – | Y | – | –
C[S@+]([O-])c1c(F)c(F)c(F)c(F)c1C(=O)Nc1ncnc2[nH]ccc12 (racemic) [Compound I-46, 2,3,4,5-tetrafluoro-6-(methylsulfinyl)-N-(7H-pyrrolo[2,3-d]pyrimidin-4-yl)benzamide] | X | Y | Y | Y | X | – | – | –
CS(=O)(=O)c1c(F)c(F)c(F)c(F)c1CNCCNc1ncnc2[nH]ccc12 [Compound I-50, N^1-(7H-pyrrolo[2,3-d]pyrimidin-4-yl)-N2-(2,3,4,5-tetrafluoro-6-(methylsulfonyl)benzyl) ethane-1,2-diamine] | X | Y | – | Y | X | – | – | –

Reference: patent US20240018153A1, “BENZENESULFONAMIDE DERIVATIVES AND USES THEREOF” (2692372 ONTARIO, INC., priority 2020, published 2024)
